{"source": "patent US7794994B2", "about": "(Kemeta, LLC, priority 2001, dated 2010)", "key": {"S-ADH from strain IP-1": {"tested_on": "S-ADH from strain IP-1", "assay": "S-ADH spectrophotometric assay, partially purified S-ADH of isolate IP-1", "assay_type": "biochemical, isopropanol-grown bacterial strain TDCC IP-1", "conditions": "ketone reduction rates, pH 6.2, 2.5 mM substrate, 0.2 mM NADH; acetone = 100", "experimental": "Protein purifications. […] Secondary alcohol dehydrogenase (S-ADH) from X. autotrophicus Py2 was purified via the following protocol. Cell-free extracts (380 mL) of isopropanol-grown X. autotrophicus Py2 (150 g) were prepared as described above, and applied to a 5×15 cm column of DEAE-Sepharose FAST FLOW (Diethylaminoethyl cross-linked agarose bead material; Catalog number 17-0709-10, Amersham Pharmacia Biotech, Piscataway, N.J.)) equilibrated in buffer A (25 mM MOPS (3-(N-morpholino)propanesulfonic acid), pH 7.6, 5% glycerol, 1 mM dithiothreitol) at a flow rate of 10 mL/min. After loading, the column was washed with […] buffer A and developed with a 2400 mL linear gradient of 90-290 mM KCl in buffer A. Fractions containing S-ADH activity were pooled and dialyzed against 2 L of 25 mM potassium phosphate (pH 6.2) containing 5% glycerol (buffer B) for 16 h at 4° C. […] After washing the column with 30 mL of buffer B, S-ADH was eluted with 20 mL of buffer A containing 10 mM NAD^+. Fractions containing S-ADH were then dialyzed against 2 L of buffer A for 16 h at 4° C., concentrated by ultrafiltration (using a YM30 ultrafiltration membrane; catalog no. 13722, from Millipore, Bedford, Mass.), and frozen in liquid nitrogen. Partially purified S-ADH from bacterial screen cultures was prepared as follows: cell-free extracts from 1 to 5 g of cell paste were prepared as described above and applied to a 5 mL HI TRAP Q column (quaternary, tetraethylammonium, cross-linked agarose bead material for use as an anion exchange matrix; catalog number 17-1153-01, Amersham Pharmacia Biotech) equilibrated in 100 mM MOPS, pH 7.6, containing 5% (v/v) glycerol (buffer C). The column was washed with 10 mL buffer C and developed with a 100 mL linear gradient of 0 to 100 mM NaCl in buffer C. Fractions containing S-ADH activity were pooled, concentrated to 0.5 mL using a 30 kDa MWCO (“molecular weight cut-off”) centrifugal membrane (catalog number UFV4BTK25, Millipore), and stored at −80° C.\n(§1) Assays were performed in 2 mL quartz cuvettes and contained NAD(H) (0.2 mM), potassium phosphate buffer (25 mM), and a source of enzyme (cell-free extracts, column fractions, or purified enzyme) in a total reaction volume of 1 mL at pH 6.2 ([…]) at 30° C. Assays were pre-incubated for 1.5 min. at 30° C. with all assay components except substrate. Assays were initiated by addition of substrate (2.5 mM) and monitored over time by measuring the change in absorbance at 340 nm (∈340 of 6.22 mM^−1·cm^−1 for NADH)."}, "[1]": {"tested_on": "S-ADH from M. vaccae JOB-5", "assay": "S-ADH spectrophotometric assay, propane-grown M. vaccae JOB-5", "assay_type": "biochemical, Mycobacterium vaccae strain JOB-5", "conditions": "ketone reduction rates, pH 6.2, 2.5 mM substrate, 0.2 mM NADH; acetone = 100", "experimental": "as §1"}, "S-ADH from T. brockii": {"target": "T1, S-ADH from T. brockii (Thermoanaerobacter brockii, UniProt P14941)", "T1 sequence (P14941 1-352)": "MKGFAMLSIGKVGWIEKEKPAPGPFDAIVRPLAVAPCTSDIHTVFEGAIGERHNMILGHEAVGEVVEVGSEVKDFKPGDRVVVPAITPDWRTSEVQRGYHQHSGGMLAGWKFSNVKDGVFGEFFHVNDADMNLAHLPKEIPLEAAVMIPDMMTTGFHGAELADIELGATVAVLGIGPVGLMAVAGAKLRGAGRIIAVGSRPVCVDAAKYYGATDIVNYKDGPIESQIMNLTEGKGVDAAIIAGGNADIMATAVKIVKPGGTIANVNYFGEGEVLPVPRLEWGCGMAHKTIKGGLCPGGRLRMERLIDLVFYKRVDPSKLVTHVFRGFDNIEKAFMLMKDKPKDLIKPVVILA", "assay": "S-ADH spectrophotometric assay, T. brockii S-ADH", "assay_type": "biochemical, Thermoanaerobium brockii", "conditions": "ketone reduction rates, pH 6.2, 2.5 mM substrate, 0.2 mM NADPH; acetone = 100", "experimental": "[…] Assays were pre-incubated for 1.5 min. at 30° C. with all assay components except substrate. Assays were initiated by addition of substrate (2.5 mM) and monitored over time by measuring the change in absorbance at 340 nm (∈340 of 6.22 mM^−1·cm^−1 for NADH)."}, "S-ADH from C. boidinii": {"tested_on": "S-ADH from C. boidinii", "assay": "S-ADH spectrophotometric assay, C. boidinii S-ADH", "assay_type": "biochemical, Candida boidinii", "conditions": "ketone reduction rates, pH 7.6, 5 mM substrate, 0.2 mM NADH; acetone = 100", "experimental": "as §1, with “Assays were initiated by addition of substrate (2.5 mM) and monitored over time by measuring the change in absorbance at 340 nm (∈340 of 6.22 mM^−1·cm^−1 for NADH).” left out"}, "[2]": {"tested_on": "S-ADH from X. autotrophicus strain Py2", "assay": "Secondary alcohol dehydrogenase NADH oxidation spectrophotometric assay", "assay_type": "biochemical, Xanthobacter autotrophicus strain Py2", "experimental": "as §1\nData analysis. Kinetic constants (Km and Vmax) were calculated by fitting initial rate data to the Michaelis-Menten equation and using the software KaleidaGraph Fourth Edition, (Synergy Software, Reading, Pa.)."}, "[3]": {"conditions": "constant perfusion at 1.36 mmol/min. for three hours; cited from earlier work"}}, "data": [{"molecule": "CCC(=O)CC", "note": "[3-Pentanone]", "values": [{"measurement": "Relative S-ADH Activity (%) IP-1, ketone reduction", "setting": "S-ADH from strain IP-1", "value": 5, "unit": "%"}, {"measurement": "Relative S-ADH Activity (%) JOB 5, ketone reduction", "setting": "[1]", "value": 26, "unit": "%"}, {"measurement": "Relative S-ADH Activity (%) T. brockii, ketone reduction", "setting": "S-ADH from T. brockii", "value": 49, "unit": "%"}, {"measurement": "Relative S-ADH Activity (%) C. boidinii, ketone reduction", "setting": "S-ADH from C. boidinii", "value": 60, "unit": "%"}, {"measurement": "Relative S-ADH Activity (%) X. Py2, ketone reduction", "setting": "[2]; ketone reduction rates, pH 6.2, 2.5 mM substrate, 0.2 mM NADH, acetone = 100", "value": 180, "unit": "%"}]}, {"molecule": "NC(=O)C1=CN([C@@H]2O[C@H](COP(=O)(O)OP(=O)(O)OC[C@H]3O[C@@H](n4cnc5c(N)ncnc54)[C@H](OP(=O)(O)O)[C@@H]3O)[C@@H](O)[C@H]2O)C=CC1", "note": "[NADPH, nicotinamide adenine dinucleotide phosphate, reduced form]", "values": [{"measurement": "ability to serve as electron donor in acetone reduction assays", "setting": "[2]; data not shown", "value": "not"}]}, {"molecule": "CC(=O)CC(=O)[O-].[Na+]", "note": "[Na acetoacetate]", "values": [{"measurement": "blood ketone body concentration at the end of perfusion", "setting": "[3]", "value": 3, "unit": "µmol·mL"}]}, {"molecule": "NC(=O)C1=CN([C@@H]2O[C@H](COP(=O)(O)OP(=O)(O)OC[C@H]3O[C@@H](n4cnc5c(N)ncnc54)[C@H](O)[C@@H]3O)[C@@H](O)[C@H]2O)C=CC1", "note": "[NADH, nicotinamide adenine dinucleotide, reduced form]", "values": [{"measurement": "Km", "setting": "[2]; acetone at fixed saturating concentration, read-out: Km for NADH", "value": "5.1 ± 0.4", "unit": "µM"}, {"measurement": "ability to serve as electron donor in acetone reduction assays", "setting": "[2]; data not shown", "value": "could serve as the electron donor"}]}, {"molecule": "CO", "note": "[methanol]", "values": [{"measurement": "inhibition of S-ADH activity", "setting": "[2]; saturating acetone, alcohol at about 13-fold over the Km value for acetone, data not shown", "value": "no inhibition was observed"}]}]}
